Measured values published in US3946000A, “7-[α-(2-Aminomethyl-1-cyclohexenyl)-acetamido]-3-heterocyclic thiomethyl-3-cephem-4-carboxylic acids” (Bristol-Myers Company, priority 1973, dated 1976).
Converted amounts (≈) assume the structure as drawn. Like-named read-outs stand apart in the source and are kept apart here. Values belong to the compound of their own block, whether it stands above or below them.

Key:
[1] = Solubility in 0.1 M pH 7.0 phosphate buffer (bioassay and UV-assay); type: physicochemical; settings: for solubility at 4 h: 0.1 m phosphate buffer, pH 7, aqueous buffer
Experimental: *Stirred at 25° C. for 4 hours in 0.1 M pH 7.0 phosphate
buffer--filtered through Milipore filter (0.45 μ)--assayed
spectroscopically against its own standard.
The test solution and the standard solution are prepared as described below.
About 10 mg. (1) of a sample is placed in a vial and mixed with 1 ml. of 0.1 M phosphate buffer (pH 7.0). The vial is stoppered, sealed with a metal cap, placed on a rotary shaker and agitated at 160 rpm for 4 hr. at 25° C. The solution is filtered through a Millipore filter (HAWP 01300, mean pore size 0.45 μm). The filtrate is diluted to use for bioassay and UV assay as follows:
About 2 mg. of the same sample is weighed precisely and dissolved in 4 ml. of 1% K2 CO3 solution^(3) (usually within one minute). The solution is diluted exactly to 50 ml. in a flask with 0.1 M pH 7.0 phosphate buffer and used for the preparation of the standard solutions for bioassay and UV-assay as follows:
(1) A 20 mg. or more sample is used when the sample is expected to be more soluble.
(2) 0.1 M pH 7.0 phosphate buffer is used as a diluent in the present test and also as a reference solution in UV-assay.
(3) It was previously confirmed that almost the same result is obtained when the sample is solubilized in DMSO (dimethylsulfoxide) and then diluted similarily with the buffer.
(4) Volume of the solution is measured precisely with an appropriate pipette or flask.
BA: Bioassay, UV: UV-assay Results given for the same compound on different lines were obtained using samples from different lots.

S. aureus BX-1633 = experiment: Minimum curative dose in infected mice, S. aureus BX-1633; type: in vivo; settings: Staphylococcus aureus, BX1633, sc; subcutaneous, mice infected with lethal dose of S. aureus BX-1633; read-out: CD50 (minimum curative dose for 50% of the mice)
E coli Juhl = experiment: Minimum curative dose in infected mice, E coli Juhl; type: in vivo; settings: Mus musculus, sc; subcutaneous, mice infected with lethal dose of E coli Juhl; read-out: CD50 (minimum curative dose for 50% of the mice)
Water solubility = type: physicochemical; settings: sodium salt
S. aureus Russel = experiment: M.I.C. by Tube Dilution, S. aureus Russel; type: cell-based; settings: Nutrient Broth, overnight at 37° C.
E. coli ATCC 8739 = experiment: M.I.C. by Tube Dilution, E. coli ATCC 8739; type: cell-based; settings: Escherichia coli, ATCC8739, overnight at 37° C.
E. coli NIHJ = experiment: M.I.C. by Tube Dilution, E. coli NIHJ; type: cell-based; settings: Escherichia coli, overnight at 37° C.
E. coli Juhl A15119 = experiment: M.I.C. by Tube Dilution, E. coli Juhl A15119; type: cell-based; settings: Escherichia coli, JUHLA15119, 10^-4 dilution, overnight at 37° C.
Str. pyogenes A9604 = experiment: M.I.C. by Tube Dilution, Str. pyogenes A9604; type: cell-based; settings: Streptococcus pyogenes; Str. pyogenes A9604 + 5% serum; 50% Nutrient Broth - 45% Antibiotic Assay Broth; overnight at 37° C.
Mycobacterium 607 = experiment: M.I.C. by Tube Dilution, Mycobacterium 607; type: cell-based; settings: overnight at 37° C.
Pr. mirabilis A9900 = experiment: M.I.C. by Tube Dilution, Pr. mirabilis A9900; type: cell-based; settings: Proteus mirabilis, 10^-4 dilution, overnight at 37° C.
Sal. enteritidis A9531 = experiment: M.I.C. by Tube Dilution, Sal. enteritidis A9531; type: cell-based; settings: Salmonella enterica, 10^-4 dilution, overnight at 37° C.
K. pneumoniae A9977 = experiment: M.I.C. by Tube Dilution, K. pneumoniae A9977; type: cell-based; settings: Klebsiella pneumoniae, 10^-4 dilution, overnight at 37° C.
S. aureus BX1633 A9606 = experiment: M.I.C. by Tube Dilution, S. aureus BX1633 A9606; type: cell-based; settings: Nutrient Broth, overnight at 37° C.
Ser. marcescens A20019 = experiment: M.I.C. by Tube Dilution, Ser. marcescens A20019; type: cell-based; settings: Serratia marcescens, 10^-4 dilution, overnight at 37° C.
Ps. aeruginosa A9843 = experiment: M.I.C. by Tube Dilution, Ps. aeruginosa A9843; type: cell-based; settings: Pseudomonas aeruginosa, 10^-4 dilution, overnight at 37° C.
Pr. morganii A15153 = experiment: M.I.C. by Tube Dilution, Pr. morganii A15153; type: cell-based; settings: Morganella morganii, 10^-4 dilution, overnight at 37° C.
K. pneumoniae A15130 = experiment: M.I.C. by Tube Dilution, K. pneumoniae A15130; type: cell-based; settings: Klebsiella pneumoniae, 10^-4 dilution, overnight at 37° C.
[2] = 0.1 M phosphate buffer (pH 7.0), 4 hr. at 25° C., UV-assay, read-out: Solubility, UV (UV-assay)
[3] = 0.1 M phosphate buffer (pH 7.0), 4 hr. at 25° C., bioassay, read-out: Solubility, BA (bioassay)
[4] = stirred at 25° C. for 4 hours in 0.1 M pH 7.0 phosphate buffer, assayed spectroscopically against its own standard, read-out: Solubility

solubility at 4 h [1, 2]: 16000 µg/mL (≈ 32.5 mM)
solubility at 4 h [1, 3]: 16800 µg/mL (≈ 34.2 mM)
solubility at 4 h [1, 4]: 16000 to 16800 µg/mL (≈ 32.5 to 34.2 mM)
SMILES: NCC1=C(CC(=O)NC2C(=O)N3C(C(=O)O)=C(CSc4ccc(O)nn4)CS[C@H]23)CCCC1 (stereo partly drawn) [Example 1, 7-[α-(2-aminomethyl-1-cyclohexenyl)acetamido]-3-(6-hydroxypyridazin-3-ylthiomethyl)-3-cephem-4-carboxylic acid]

solubility (Water solubility): > 250 mg/mL
SMILES: Cn1nnnc1SCC1=C(C(=O)O)N2C(=O)C(NC(=O)CC3=C(CN)CCCC3)C2SC1 (stereo not shown) [Example 15]

solubility at 4 h [1, 2]: 4400 µg/mL (≈ 9.02 mM)
solubility at 4 h [1, 3]: 4400 µg/mL (≈ 9.02 mM)
solubility at 4 h [1, 4]: 4400 µg/mL (≈ 9.02 mM)
SMILES: NCc1ccccc1CC(=O)NC1C(=O)N2C(C(=O)O)=C(CSc3ccc(O)nn3)CSC12 (stereo not shown) [BB-S150, reference compound]

solubility at 4 h [1, 2]: 4600 µg/mL (≈ 9.28 mM)
solubility at 4 h [1, 3]: 4300 µg/mL (≈ 8.68 mM)
solubility at 4 h [1, 4]: 4300 to 4600 µg/mL (≈ 8.68 to 9.28 mM)
SMILES: Cc1nnc(SCC2=C(C(=O)O)N3C(=O)C(NC(=O)CC4=C(CN)CCCC4)[C@H]3SC2)s1 (stereo partly drawn) [Example 4, 7-[α-(2-aminomethyl-1-cyclohexenyl)acetamido]-3-(5-methyl-1,3,4-thiadiazol-2-ylthiomethyl)-3-cephem-4-carboxylic acid]

Second part, the compound before the results:

SMILES: Cn1nnnc1SCC1=C(C(=O)O)N2C(=O)C(NC(=O)Cc3ccccc3CN)C2SC1 (stereo not shown) [MR-S94, reference compound]
ED50 (S. aureus BX-1633): 3.4 mg/kg
ED50 (E coli Juhl): 4.4 mg/kg
solubility at 4 h [1, 2]: 1900 µg/mL (≈ 4 mM)
solubility at 4 h [1, 3]: 2000 µg/mL (≈ 4.21 mM)
solubility at 4 h [1, 4]: 1900 µg/mL (≈ 4 mM)

SMILES: NCc1ccccc1CC(=O)NC1C(=O)N2C(C(=O)O)=C(CSc3ccc4nnc(O)n4n3)CSC12 (stereo not shown) [BB-S207, reference compound]
Solubility, UV (UV-assay) ([1]; 0.1 M phosphate buffer (pH 7.0), 4 hr. at 25° C., UV-assay, 240 min): 3.6 mg/mL (≈ 6.82 mM)
solubility at 4 h [1, 2]: 3900 µg/mL (≈ 7.39 mM)
solubility at 4 h [1, 3]: 4200 µg/mL (≈ 7.96 mM)
solubility at 4 h [1, 4]: 3600 µg/mL (≈ 6.82 mM)

SMILES: CC1=C(C(=O)O)N2C(=O)C(NC(=O)CC3=C(CN)CCCC3)C2SC1 (stereo not drawn) [Example 17, 7-[α-(2-Aminomethyl-1-cyclohexenyl)acetamido]desacetoxycephalosporanic acid]
M.I.C. (S. aureus Russel; listed as 6x): 12.5 Mcg./ml.
MIC (S. aureus Russel; Staphylococcus aureus): > 12.5 µg/mL
MIC (E. coli ATCC 8739): > 100 µg/mL
MIC (E. coli NIHJ): > 100 µg/mL
MIC (E. coli Juhl A15119): > 100 µg/mL
MIC (Str. pyogenes A9604): 1.25 to 2.5 µg/mL
MIC (Mycobacterium 607): > 100 µg/mL
solubility at 4 h ([1]; UV-assay, read-out: Solubility (UV)): 3300 µg/mL (≈ 9.03 mM)
solubility at 4 h ([1]; bioassay, read-out: Solubility (BA)): 4100 µg/mL (≈ 11.2 mM)
MIC (Pr. mirabilis A9900): > 100 µg/mL
MIC (Sal. enteritidis A9531): > 100 µg/mL
MIC (K. pneumoniae A9977): > 100 µg/mL
M.I.C. (S. aureus BX1633 A9606; S. aureus BX1633 A9606, listed as 6x): 25 Mcg./ml.
MIC (S. aureus BX1633 A9606; Staphylococcus aureus, BX1633A9606, S. aureus BX1633 A9606): > 12.5 µg/mL
MIC (Ser. marcescens A20019): > 100 µg/mL
MIC (Ps. aeruginosa A9843): > 100 µg/mL
MIC (Pr. morganii A15153): > 100 µg/mL
MIC (K. pneumoniae A15130): > 100 µg/mL
